{"source": "paper PMC11755785", "about": "(Langmuir, 2025)", "key": {"[1]": {"details": "cited from earlier work"}, "[2]": {"test": "1H NMR titration of keto-enol and diketo tautomeric species", "type": "physicochemical", "protocol": "^1H NMR measurements were conducted using a 400 MHz NMR spectrometer (JNM-ECZ 400 S, Japan Electronics Co., Ltd., Tokyo, Japan). Sample solutions were prepared using D2O and methanol-d4 as the protic solvent, acetonitrile-d3 as the aprotic solvent, and their mixtures, with sample concentrations exceeding 1.5% (w/v). The chemical shifts of the samples were calibrated using the internal tetramethylsilane (TMS) signal as the zero point, whereas the solvent signals in the literature served as reference points. When sodium salts were required, the neutral AVB species in D2O were dissolved in equimolar amounts of aqueous NaOH and methanol-d4, followed by drying under reduced pressure in a rotary evaporator and heating to dryness below Tm of the sodium salts. The formation of sodium salts was confirmed by measuring Tm using a differential scanning calorimeter (DSC8230, Rigaku Co., Ltd., Tokyo, Japan).\nIn the one-dimensional (1D) ^1H NMR spectra, the integral intensities correspond to the relative stoichiometry of protons for the species, except for the signals assigned to the stable isotopes of deuterated solvents. We could recognize the aromatic proton signals of AVB, but the corresponding signals sometimes overlapped between its keto-enol and diketo species, depending upon the solvent composition. The signals of the aromatic protons at the para positions to the keto/enol substituents were neglected because of the high probability of overlap, in which the chemical shift drifts, Δδ, related to the shielding effect are not noticeably accompanied by the electronic states in the keto/enol substituents.\nWe chose the signals of the aromatic protons at the ortho positions and the aliphatic protons at the ortho substituents (tert-butyl and methoxy groups) to keto/enol substituents and measured their integral intensities. Using the simultaneous equations built as linear combinations of integral values for the isolated and overlapping signals, we determined the molar ratio of the keto-enol and diketo species."}, "[3]": {"test": "Flask-shaking 1-octanol/water partition, log D–pH profile fitted to Avdeef's diagram", "type": "physicochemical", "details": "modified Britton–Robinson buffers pH 5–11.5, 298 K", "protocol": "The aqueous-phase solvents were prepared by mixing 25 mM KH2PO4 and 25 mM Na2HPO4 solutions in 25 mM Pi buffer. The pH was adjusted before fixing the prescribed concentrations of the acid components of the buffer. The JP1 and JP2 buffer solutions were 10 mM sodium citrate/HCl buffer (pH 1.2) and Pi buffer (pH 6.8), which were prepared in compliance with the description for solution media for the dissolution test in Japanese Pharmacopeia (JP)-implemented international harmonization. The modified Britton–Robinson universal pH buffer comprised 28.6 mM KH2PO4, 28.6 mM HBO2, and 28.6 mM NaCl, titrated with 1 M NaOH (here, modified means elimination of barbital to cancel its interaction with organic solutes). For the partition equilibrium examination, the aqueous saturated 1-octanol phase comprised 1-octanol, which was flooded with a modified Britton–Robinson buffer adjusted to the appropriate pH in advance.\nThe hydrophobic drug dissolved in the aqueous saturated 1-octanol phase was mixed with an isochoric solution of the modified Britton–Robinson buffer (pH 5–11.5), saturated with 1-octanol. Thereafter, the samples in the screw-capped vials were machine-shaken at 298 K in a thermostatic chamber for 60 min and subsequently kept stationary for 60 min; the procedure corresponds to the conventional “flask-shaking” method.[41]−[43] After settling, the pH in the aqueous phase was confirmed using pH indicator strips (MColoHast pH 0–6.0, MQuant pH 7.5–14, and MQuant pH 0–14, Merck, Germany) to be that of the adjusted pH value. Aliquots (10 μL) from the 1-octanol and the aqueous layers were injected into the HPLC instrument. The 1-octanol/water partition coefficients, log P (equivalent to log KOW), and acid dissociation constants, pKa, were optimized using curve fitting, approximated by eq 1 [drawing 1] 1 which is Avdeef’s diagram[44] derived from the Henderson–Hasselbalch expression for the equilibrium between the protonated and deprotonated species. The curve-fitting procedures used the solver module of Microsoft Excel 2016 with the implemented GRG nonlinear option. Approximate curves corresponding to these optimized parameters were drawn, and the pKa and log P values for AVB, OXB, and CUR were obtained."}, "[4]": {"details": "70% methanol (methanol-d4/D2O = 7:3)"}, "[5]": {"details": "isochoric acetonitrile/water solvent"}}}
{"substance": "p-tert-butyl-p-methoxydibenzoylmethane [AVB]", "values": [{"measurement": "log Kow", "setting": "[1]; Chart 1", "result": 4.51}, {"measurement": "reported log P", "setting": "[1]", "result": 4.51}, {"measurement": "reported pKa", "setting": "[1]", "result": 9.7}, {"measurement": "partition coefficient log KOW", "setting": "[1]; introduction, reference not given", "result": 4.51}, {"measurement": "molar ratio of diketo species", "setting": "[2]; [4]", "result": 15.3, "unit": "%"}, {"measurement": "molar ratio of keto-enol species", "setting": "[2]; [4]", "result": 84.7, "unit": "%"}, {"measurement": "molar ratio of diketo species", "setting": "[2]; [5]", "result": 9.3, "unit": "%"}, {"measurement": "molar ratio of keto-enol species", "setting": "[2]; [5]", "result": 90.7, "unit": "%"}, {"measurement": "acid dissociation constant, pKa", "setting": "[3]; from log D–pH curve fitting", "result": 8.59}, {"measurement": "1-octanol/water partition coefficient, log P", "setting": "[3]; neutral form, curve fitting", "result": 4.27}]}
